US9096591B2, “Tetracyclic compounds” (Medivation Technologies, Inc., priority 2007, dated 2015)
Like-named read-outs stand apart in the source and are kept apart here.

What was measured:
[1] = molecular target: T1, human recombinant adrenergic α2A receptor (Homo sapiens, UniProt P08913); assay: Adrenergic α2A radioligand binding ([3H]MK-912); set-up: Inhibition of ligand binding, Adren. alpha2A: concentration or dose not given beside the values; details: for Inhibition of ligand binding, Adren. alpha2A: percent inhibition of specific binding; for inhibition at 1 µM: compounds screened at 1 μM, read-out: Inhibition of ligand binding, Adren. alpha2A (percent inhibition of specific binding)
T1 construct: expressed in transfected cells; host or cells: insect Sf9 cells
T1 sequence (P08913 1-465): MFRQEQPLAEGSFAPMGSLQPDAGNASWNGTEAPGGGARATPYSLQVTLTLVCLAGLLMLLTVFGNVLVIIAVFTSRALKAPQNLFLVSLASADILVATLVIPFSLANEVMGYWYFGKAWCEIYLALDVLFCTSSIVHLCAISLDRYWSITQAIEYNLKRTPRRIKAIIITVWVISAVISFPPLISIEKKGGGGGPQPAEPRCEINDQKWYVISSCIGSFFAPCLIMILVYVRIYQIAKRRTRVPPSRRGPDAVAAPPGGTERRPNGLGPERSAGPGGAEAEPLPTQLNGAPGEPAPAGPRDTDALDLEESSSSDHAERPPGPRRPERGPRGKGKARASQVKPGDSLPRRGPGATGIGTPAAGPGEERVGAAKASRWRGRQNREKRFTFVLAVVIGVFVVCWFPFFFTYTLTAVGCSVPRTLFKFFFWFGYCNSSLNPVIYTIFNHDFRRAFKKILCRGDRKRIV
Procedure: To evaluate in radioligand binding assays the activity of compounds of the invention, human recombinant adrenergic α2A receptor expressed in insect Sf9 cells (Uhlen S et al. J Pharmacol Exp Ther. 271:1558, 1994) in a modified Tris-HCl buffer (50 mM Tris-HCl, pH 7.4, 12.5 mM MgCl2, 2 mM EDTA) was used. Compounds of invention were incubated with 1 nM [^3H]MK-912 for 60 minutes at 25° C. MK912 is (2S-trans)-1,3,4,5′,6,6′,7,12b-octahydro-1′,3′-dimethyl-spiro[2H-benzofuro[2,3-a]quinolizine-2,4′(1′H)-pyrimidin]-2′(3′H)-one hydrochloride Non-specific binding was estimated in the presence of 10 μM WB-4101 (2-(2,6-Dimethoxyphenoxyethyl)aminomethyl-1,4-benzodioxane hydrochloride). Receptor proteins were filtered and washed, the filters were then counted to determine [^3H]MK-912 specifically bound. […] Biochemical assay results are presented as the percent inhibition of specific binding in Table 6.

[2] = molecular target: T2, human recombinant histamine H2 receptor (Homo sapiens, UniProt P25021); assay: Histamine H2 radioligand binding ([125I]Aminopotentidine); details: for inhibition at 0.3 µM: 0.3 μM compound; for inhibition at 0.1 µM: 0.1 μM compound
T2 construct: expressed in transfected cells; host or cells: CHO-K1 cells
Procedure, shortened: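 This radioligand binding assay measured displacement of [125I]Aminopotentidine from recombinant human histamine H2 receptors. Compounds were dissolved in 1% DMSO vehicle. Specific binding was calculated by subtracting non-specific binding, defined using 3 μM Tiotidine, and activity was reported as percentage inhibition of that specific binding.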

[3] = molecular target: T3, human recombinant adrenergic α1D receptor (Homo sapiens, UniProt P25100); assay: Adrenergic α1D radioligand binding ([3H]Prozosin); set-up: Inhibition of ligand binding, Adren. alpha1D: concentration or dose not given beside the values; details: for Inhibition of ligand binding, Adren. alpha1D: percent inhibition of specific binding; for inhibition at 1 µM: compounds screened at 1 μM, read-out: Inhibition of ligand binding, Adren. alpha1D (percent inhibition of specific binding)
T3 construct: expressed in transfected cells; host or cells: HEK-293 cells
T3 sequence (P25100 1-572): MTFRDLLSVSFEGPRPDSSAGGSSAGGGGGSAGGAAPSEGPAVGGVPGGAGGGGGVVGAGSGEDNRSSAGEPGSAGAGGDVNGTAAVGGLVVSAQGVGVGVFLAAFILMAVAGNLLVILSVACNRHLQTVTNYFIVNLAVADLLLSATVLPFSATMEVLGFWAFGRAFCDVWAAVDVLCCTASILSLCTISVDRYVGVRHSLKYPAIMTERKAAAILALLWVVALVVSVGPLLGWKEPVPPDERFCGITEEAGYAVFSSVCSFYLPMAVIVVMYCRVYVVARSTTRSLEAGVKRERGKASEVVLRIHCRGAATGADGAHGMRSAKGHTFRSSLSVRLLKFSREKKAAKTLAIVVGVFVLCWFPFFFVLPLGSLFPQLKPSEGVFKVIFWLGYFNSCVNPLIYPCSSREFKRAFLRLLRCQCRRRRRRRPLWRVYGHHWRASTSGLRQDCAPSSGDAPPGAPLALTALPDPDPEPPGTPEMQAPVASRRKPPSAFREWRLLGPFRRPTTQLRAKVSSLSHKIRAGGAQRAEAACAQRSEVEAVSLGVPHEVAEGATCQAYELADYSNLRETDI
Procedure: Compounds of invention were incubated with 0.6 nM [^3H]Prozosin for 60 minutes at 25° C. Non-specific binding was estimated in the presence of 10 μM phentolamine. Receptor proteins were filtered and washed, the filters were then counted to determine [^3H]Prozosin specifically bound. […] Biochemical assay results are presented as the percent inhibition of specific binding in Table 6.

[4] = molecular target: T4, Serotonin (5-Hydroxytryptamine) 5-HT7 (Homo sapiens, UniProt P34969); assay: Serotonin 5-HT7 radioligand binding ([3H]LSD); set-up: Inhibition of ligand binding, Ser. 5-HT7: concentration or dose not given beside the values; details: for Inhibition of ligand binding, Ser. 5-HT7: percent inhibition of specific binding; for inhibition at 1 µM: compounds screened at 1 μM, read-out: Inhibition of ligand binding, Ser. 5-HT7 (percent inhibition of specific binding)
T4 construct: expressed in transfected cells; host or cells: CHO cells
Procedure: Lysergic acid diethylamide (LSD) for 2 hours at 25° C. […] Receptor proteins were filtered and washed, the filters were then counted to determine [^3H]LSD specifically bound. […] Biochemical assay results are presented as the percent inhibition of specific binding in Table 6.

[5] = 0.1 nM [125I]Aminopotentidine, read-out: Histamine Binding H2, percent inhibition of specific binding
[6] = 1 μM compound, 0.1 nM [125I]Aminopotentidine, read-out: Histamine Binding H2, percent inhibition of specific binding
[7] = percent inhibition of specific binding, screened at 1 μM, read-out: Inhibition of ligand binding, Hist. H2
[8] = compounds screened at 1 μM, read-out: Inhibition of ligand binding, Hist. H2 (percent inhibition of specific binding)

T4 sequence (P34969 whole entry): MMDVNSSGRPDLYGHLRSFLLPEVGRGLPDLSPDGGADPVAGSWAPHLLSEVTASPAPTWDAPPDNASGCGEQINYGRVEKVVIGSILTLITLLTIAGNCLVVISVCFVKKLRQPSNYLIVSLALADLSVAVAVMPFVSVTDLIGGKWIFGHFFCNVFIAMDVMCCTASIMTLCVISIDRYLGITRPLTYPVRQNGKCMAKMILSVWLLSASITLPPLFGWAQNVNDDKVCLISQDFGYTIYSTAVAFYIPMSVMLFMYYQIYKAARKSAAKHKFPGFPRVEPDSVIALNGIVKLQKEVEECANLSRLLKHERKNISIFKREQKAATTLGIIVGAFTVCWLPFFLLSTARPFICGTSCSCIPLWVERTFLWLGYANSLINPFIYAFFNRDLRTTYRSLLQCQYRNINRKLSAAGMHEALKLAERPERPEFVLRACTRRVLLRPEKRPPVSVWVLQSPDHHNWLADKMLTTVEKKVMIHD
T2 sequence (P25021 whole entry): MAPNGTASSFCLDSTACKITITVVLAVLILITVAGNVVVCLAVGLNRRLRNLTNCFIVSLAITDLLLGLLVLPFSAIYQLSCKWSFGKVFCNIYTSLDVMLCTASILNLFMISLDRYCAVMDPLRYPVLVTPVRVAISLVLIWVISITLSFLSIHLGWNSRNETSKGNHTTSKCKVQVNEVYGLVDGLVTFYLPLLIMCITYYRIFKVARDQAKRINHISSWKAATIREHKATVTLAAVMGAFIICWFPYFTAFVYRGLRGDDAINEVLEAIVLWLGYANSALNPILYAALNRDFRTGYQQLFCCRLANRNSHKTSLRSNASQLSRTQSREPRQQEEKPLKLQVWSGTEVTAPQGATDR

| Structure (SMILES) | Inhibition of ligand binding, Adren. alpha2A [1] | inhibition at 0.3 µM [2, 5] | inhibition at 1 µM [2, 6] | inhibition at 1 µM [2, 7] | Inhibition of ligand binding, Adren. alpha1D [3] | Inhibition of ligand binding, Ser. 5-HT7 [4] | inhibition at 0.1 µM [2, 5] | inhibition at 1 µM [1] | inhibition at 1 µM [2, 8] | inhibition at 1 µM [3] | inhibition at 1 µM [4] |
| --- | --- | --- | --- | --- | --- | --- | --- | --- | --- | --- | --- |
| CCN1CCc2c(c3ccccc3n2CCc2ccccc2)C1 [Compound 4, 2-ethyl-2,3,4,5-tetrahydro-5-phenethyl-1H-pyrido[4,3-b]indole] | 82% | 34% | 51% | 51% | 56% | 88% | – | – | – | – | – |
| Cc1ccc2c(c1)c1c(n2Cc2ccccc2)CCN(C)C1 [Compound 137, 5-benzyl-2,3,4,5-tetrahydro-2,8-dimethyl-1H-pyrido[4,3-b]indole] | 15% | – | 45% | 45% | 12% | 15% | – | – | – | – | – |
| Cc1ccc(CCn2c3c(c4ccccc42)CN(C)CC3)cc1 [Compound 1, 2,3,4,5-tetrahydro-2-methyl-5-(4-methylphenethyl)-1H-pyrido[4,3-b]indole] | 99% | 57% | 82% | 82% | 76% | 98% | 33% | – | – | – | – |
| CCOC(=O)N1CCc2c(c3cc(-c4cccnc4)ccc3n2CCc2ccc(C)nc2)C1 [Compound 19, ethyl 3,4-dihydro-5-(2-(6-methylpyridin-3-yl)ethyl)-8-(pyridin-3-yl)-1H-pyrido[4,3-b]indole-2(5H)-carboxylate] | −8% | – | 10% | 10% | −6% | 12% | – | – | – | – | – |
| Cc1ccc(Cn2c3c(c4ccccc42)CN(C)CC3)cn1 [Compound 17, 2,3,4,5-tetrahydro-2-methyl-5-((6-methylpyridin-3-yl)methyl)-1H-pyrido[4,3-b]indole] | 56% | – | -2% | -2% | −7% | 7% | – | – | – | – | – |
| Cc1ccc2c(c1)c1c(n2CCc2nc(-c3ccccc3)cs2)CCN(C)C1 [Compound C1-5] | – | – | – | – | – | – | – | 92% | 73% | 92% | 93% |
| CCN1CCc2c(c3ccccc3n2CCc2ccc(C)cc2)C1 [Compound 3, 2-ethyl-2,3,4,5-tetrahydro-5-(4-methylphenethyl)-1H-pyrido[4,3-b]indole] | 86% | – | 51% | 51% | 48% | 81% | – | – | – | – | – |
| CCN1CCc2c(c3cc(C)ccc3n2CCc2ccc(C)nc2)C1 [Compound 31, 2-ethyl-2,3,4,5-tetrahydro-8-methyl-5-(2-(6-methylpyridin-3-yl)ethyl)-1H-pyrido[4,3-b]indole] | 66% | – | 34% | 34% | 70% | 85% | – | – | – | – | – |
| CCN1CCc2c(c3cc(C)ccc3n2Cc2ccccc2)C1 [Compound 140, 5-benzyl-2-ethyl-2,3,4,5-tetrahydro-8-methyl-1H-pyrido[4,3-b]indole] | 17% | – | 45% | 45% | 14% | 2% | – | – | – | – | – |
| Cc1ccc2c(c1)c1c(n2CCCc2ccccn2)CCN(C)C1 [Compound 233, 2,3,4,5-tetrahydro-2,8-dimethyl-5-(3-(pyridin-2-yl)propyl)-1H-pyrido[4,3-b]indole] | 90% | – | 45% | 45% | 49% | 101% | – | – | – | – | – |
| CCOC(=O)N1CCc2c(c3cc(C)ccc3n2CCc2ccccc2)C1 [Compound 24, ethyl 3,4-dihydro-8-methyl-5-phenethyl-1H-pyrido[4,3-b]indole-2(5H)-carboxylate] | 7% | – | 13% | 13% | 6% | −2% | – | – | – | – | – |
| Cc1ccc(CCn2c3c(c4cc(C(=O)O)ccc42)CNCC3)cn1 [Compound 274, 2,3,4,5-tetrahydro-5-(2-(6-methylpyridin-3-yl)ethyl)-1H-pyrido[4,3-b]indole-8-carboxylic acid] | 7% | – | – | -2% | −16% | −3% | – | – | – | – | – |
| COc1ccc2c(c1)c1c(n2CCc2nc(-c3ccccc3)cs2)CCN(C)C1 [Compound C1-6] | – | – | – | – | – | – | – | 55% | 21% | 72% | 57% |
| Cc1ccc2c(c1)c1c(n2CCc2ccc(F)cc2)CCN(C)C1 [Compound 33, 5-(4-fluorophenethyl)-2,3,4,5-tetrahydro-2,8-dimethyl-1H-pyrido[4,3-b]indole] | 98% | – | 91% | 91% | 88% | 91% | 41% | – | – | – | – |
| CCN1CCc2c(c3ccccc3n2Cc2ccccc2)C1 [Compound 16, 5-benzyl-2-ethyl-2,3,4,5-tetrahydro-1H-pyrido[4,3-b]indole] | 10% | – | 3% | 3% | 12% | 14% | – | – | – | – | – |
| CCN1CCc2c(c3ccccc3n2CCc2ccccn2)C1 [Compound 6] | 20% | – | -3% | -3% | 6% | 39% | – | – | – | – | – |
| CN1CCc2c(c3cc(Cl)ccc3n2CCCc2ccc(C(F)(F)F)nc2)C1 [Compound 324, 8-chloro-5-(3-(6-(trifluoromethyl)pyridin-3-yl)propyl)-2,3,4,5-tetrahydro-2-methyl-1H-pyrido[4,3-b]indole] | 60% | – | – | 63% | 53% | – | – | – | – | – | – |
